# Measured values reported in patent US9261498B2, “Biomarker for sensitivity to mTOR inhibitor therapy in kidney cancer” (The Regents of the University of California, priority 2005, dated 2016).
# Entries after “also recorded” stand apart in the source; their conditions may differ.
# How the values were obtained:
# VEGF = VEGF immunohistochemistry on xenograft tumors; assay type: in vivo, SCID mice; conditions: CCI-779 treated vs vehicle
# Description: FIGS. 2A-2C. Effects of VHL knockdown on angiogenesis. (a) Microvessel density was quantified by CD-31 immunolabeling (arrows) in the xenograft tumors, and difference between CCI-779 treated (+) and vehicle (−) treated mice quantified (n=6 in each group). P<0.0033 for microvessel density counts in VHL shRNA compared to vector only (see blue bars). (b) Similar number of cells were plated and maintained in 10% serum rich media, in the presence (+) or absence (−) of 10 nM CCI-779. Thirty-six hours later, conditioned media was analyzed by anti-VEGF ELISA and cell extracts prepared for protein quantification. VEGF values were normalized to total cellular protein. Error bars equal one standard deviation (n=3). (c) Immunohistochemistry for VEGF protein was performed on paraffin embedded tumor xenografts from vehicle and CCI-779 treated mice.
# Xenograft tumor samples were fixed in 10% buffered formalin and embedded in paraffin. […] Microvessel density was quantified by as described previously (Weidner, N. et al. J Natl Cancer Inst 84, 1875-87 (1992)). Briefly, microvessel density was determined by light microscopy in areas of the xenograft tumor containing highest numbers of capillaries and small venules (microvessels) per area (i.e. neovascular “hotspots”) by scanning the tumor sections at low power (40× and 100×). […]
# mTOR = test: Immunoblot of p-S6 and p-eIF4G in cell lysates (mTOR activity); assay type: cell-based, human
# Description: (a) SN12C-CSCG and SN12C-VHLshRNA cell were treated with vehicle, 1 nM or 10 nM of CCI-779 and lysed 24 hours later. Lysates were subjected to immunoblotting for HIF-1α, HIF-2α, GLUT-1, CA-IX, p-eIF4G, p-S6 Ribosomal protein. Equal protein loading was verified using anti-β-actin antibody. (b) HIF-1α expression was probed by immunoblotting in SN12C-MSCV-5′TOP-HIF-1α cDNA (left panel) and SN12C-MSCV-HIF-1α cDNA (tight panel) post 24 hours of vehicle, 1 nM or 10 nM of CCI-779.
# FIGS. 4A-4C. Rescue of CCI-779 growth suppression by HIF-1-α and HIF-2-α prolyl hydcroxylase mutants. […] Cell growth was measured by cell counts (n=3). […]
# Cells and xenograft tumors were lysed in ECB lysis buffer (see, e.g. Kondo et al., Cancer Cell 1, 237-46 (2002)) or high-detergent buffer (2% SDS), (see, e.g. Chen et al., Nat Med 10, 33-9 (2004)), respectively, supplemented with complete protease and phosphatase inhibitor cocktails (Calbiochem). […] Bound antibody was detected using enhanced chemiluminescence (ECL, Amersham). For VEGF ELISA quantification, cells were plated in 6 well plates (1×10^5 per well). […] Thirty-six hours later, VEGF ELISA (R&D Systems) was performed according to the manufacturer's instructions, using a Fisher Plate reader. […]
smiles,measurement,setting,value
CO[C@H]1C[C@@H]2CC[C@@H](C)[C@@](O)(O2)C(=O)C(=O)N2CCCC[C@H]2C(=O)O[C@H]([C@H](C)C[C@@H]2CC[C@@H](OC(=O)C(C)(CO)CO)[C@H](OC)C2)CC(=O)[C@H](C)/C=C(\C)[C@@H](O)[C@@H](OC)C(=O)[C@H](C)C[C@H](C)/C=C/C=C/C=C/1C [CCI-779],VEGF protein expression in VHL knockdown xenografts,VEGF,reversed; also recorded: reduced
same,phosphorylation of S6 and eIF4G,mTOR; VHL knockdown cells expressing HIF-1α/HIF-2α mutants,decreased phosphorylation
same,phosphorylation of S6 and eIF4G,"mTOR; parental and VHL knockdown cells, 1 and 10 nM CCI-779",reduced phosphorylation; also recorded: reduction in phosphorylation
